Measurements from BigSolDB 2.1.

NC(=O)Cc1ccc(O)cc1
solubility (mole fraction)
Conditions | 278.15 K | 283.15 K | 288.15 K | 293.15 K | 298.15 K | 303.15 K | 308.15 K | 313.15 K | 318.15 K | 323.15 K
in acetonitrile | 0.00096 | 0.00141 | 0.00188 | 0.00249 | 0.00305 | 0.00376 | 0.00463 | 0.00573 | 0.00705 | 0.00869
in ethanol | 0.00381 | 0.00459 | 0.00534 | 0.00638 | 0.00752 | 0.00902 | 0.0107 | 0.0126 | 0.015 | 0.0179
in ethyl acetate | 0.0017 | 0.00196 | 0.00238 | 0.00297 | 0.00363 | 0.00455 | 0.00557 | 0.00663 | 0.0078 | 0.00932
in isopropanol | 0.00319 | 0.00379 | 0.0046 | 0.00552 | 0.00684 | 0.00852 | 0.0102 | 0.0122 | 0.0142 | 0.0164
in methanol | 0.0075 | 0.00824 | 0.00951 | 0.0111 | 0.0128 | 0.0148 | 0.0169 | 0.0192 | 0.0218 | 0.0246
in methyl acetate | 0.0032 | 0.00359 | 0.00415 | 0.00486 | 0.00577 | 0.0068 | 0.00779 | 0.00908 | 0.0103 | 0.0118
in n-butanol | 0.00284 | 0.00346 | 0.00428 | 0.00508 | 0.00642 | 0.00754 | 0.00899 | 0.0106 | 0.0125 | 0.0144
in n-butyl acetate | 0.00269 | 0.003 | 0.00345 | 0.0041 | 0.00491 | 0.00587 | 0.00694 | 0.00812 | 0.00935 | 0.0105
in n-heptane | 0.00061 | 0.00087 | 0.00111 | 0.00145 | 0.00194 | 0.00253 | 0.00329 | 0.00418 | 0.00509 | 0.00627
in n-hexane | 0.00032 | 0.00053 | 0.00082 | 0.00116 | 0.00151 | 0.00205 | 0.00263 | 0.00343 | 0.00438 | 0.0056
in n-propanol | 0.00215 | 0.00245 | 0.00292 | 0.0035 | 0.00424 | 0.0052 | 0.00629 | 0.00734 | 0.00868 | 0.01
in water | 0.00096 | 0.00141 | 0.00188 | 0.00249 | 0.00305 | 0.00376 | 0.00463 | 0.00573 | 0.00705 | 0.00869
